Activity calls are given as the source filed them. The calls are words filed in the database; no cut-off is given here.
Key:
[1] = test system: ECa-109 cell line; test: Reversal of vincristine-resistance in human Eca-109 cells assessed as fold reversal by measuring cell viability at 2.5 uM incubated for 48 hrs by CCK-8 method relative to vincristine alone; assay type: functional
[2] = biological target: T1, Broad substrate specificity ATP-binding cassette transporter ABCG2 (Homo sapiens, UniProt Q9UNQ0); test: Binding affinity to ABCG2 in vincristine resistant human Eca-109 cells assessed as stabilization of protein at 100 uM incubated for 30 mins by thermal shift assay; assay type: cell-based; settings: eca-109, 0.5 h
T1 sequence (Q9UNQ0 whole entry): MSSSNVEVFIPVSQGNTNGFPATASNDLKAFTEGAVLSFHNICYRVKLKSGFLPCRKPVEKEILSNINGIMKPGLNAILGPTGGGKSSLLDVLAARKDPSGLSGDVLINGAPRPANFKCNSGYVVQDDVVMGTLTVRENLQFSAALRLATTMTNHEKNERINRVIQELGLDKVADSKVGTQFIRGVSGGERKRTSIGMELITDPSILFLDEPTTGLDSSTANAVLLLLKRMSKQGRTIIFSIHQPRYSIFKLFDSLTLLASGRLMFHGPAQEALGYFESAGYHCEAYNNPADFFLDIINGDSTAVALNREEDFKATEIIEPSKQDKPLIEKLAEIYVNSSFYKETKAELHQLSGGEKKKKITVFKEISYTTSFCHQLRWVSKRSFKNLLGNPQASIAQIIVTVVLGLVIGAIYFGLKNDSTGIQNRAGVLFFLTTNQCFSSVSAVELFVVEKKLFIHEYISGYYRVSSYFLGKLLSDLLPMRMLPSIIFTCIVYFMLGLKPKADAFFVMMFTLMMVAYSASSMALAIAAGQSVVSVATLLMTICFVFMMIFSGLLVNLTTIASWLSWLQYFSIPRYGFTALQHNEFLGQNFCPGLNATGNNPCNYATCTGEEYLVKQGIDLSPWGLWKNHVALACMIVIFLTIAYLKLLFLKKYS

[3] = test system: ECa-109 cell line; test: Synergistic antitumor activity against in vincristine resistant p-gp overexpressing human Eca-109 cells xenografted in nude mouse assessed as increase in apoptosis at 30 mg/kg, IG administered every two days for 21 days in presence of vincristine by TUNEL analysis; assay type: functional, organism-based; settings: time 21.0 day
[4] = AUC (0 to t) in Sprague-Dawley rat at 30 mg/kg, po measured upto 24 hrs by UPLC/MS/MS analysis; assay type: ADME, organism-based; set-up: time < 24 hrs, dose 30 mg/kg, route po; settings: in vivo
[5] = test system: ECa-109 cell line; test: Induction of apoptosis in vincristine resistant human Eca-109 cells assessed as viable cells at 2.5 uM incubated for 24 hrs in presence of vincristine by AnnexinV-FITC/PI staining based flow cytometric analysis (reference value: 89.2%); assay type: functional; settings: read-out: Activity
[6] = test system: ECa-109 cell line; test: Induction of apoptosis in vincristine resistant human Eca-109 cells assessed as necrotic cells at 1 uM incubated for 24 hrs in presence of vincristine by AnnexinV-FITC/PI staining based flow cytometric analysis (reference value: 0.35%); assay type: functional
[7] = biological target: T2, ATP-dependent translocase ABCB1 (Homo sapiens, UniProt P08183); test: Inhibition of P-gp efflux in vincristine resistant human Eca-109 cells assessed as increase in rhodamine 123 accumulation incubated for 3 hrs by DAPI staining based laser-scanning confocal microscopy analysis; assay type: cell-based; settings: eca-109, 3 h, at 1 to 5 µM, dose 1-5 µM
[8] = test system: ECa-109 cell line; test: Induction of apoptosis in vincristine resistant human Eca-109 cells assessed as viable cells at 2.5 uM incubated for 24 hrs by AnnexinV-FITC/PI staining based flow cytometric analysis (reference value: 90.3%); assay type: functional; settings: read-out: Activity
[9] = Half life in Sprague-Dawley rat at 30 mg/kg, po measured upto 24 hrs by UPLC/MS/MS analysis; assay type: ADME, organism-based; settings: in vivo
[10] = test system: ECa-109 cell line; test: Induction of apoptosis in vincristine resistant human Eca-109 cells assessed as early apoptotic cells at 5 uM incubated for 24 hrs in presence of vincristine by AnnexinV-FITC/PI staining based flow cytometric analysis (reference value: 4.43%); assay type: functional
[11] = Oral bioavailability in Sprague-Dawley rat at 30 mg/kg measured upto 24 hrs by UPLC/MS/MS analysis; assay type: ADME, organism-based; settings: in vivo
[12] = test system: ECa-109 cell line; test: Cytotoxicity against vincristine resistant human Eca-109 cells incubated for 48 hrs by CCK-8 method relative to control; assay type: functional; set-up: concentration or dose not given beside the values
[13] = test system: ECa-109 cell line; test: Cytotoxicity against human Eca-109 cells incubated for 48 hrs by CCK-8 method; assay type: functional, cell-based; settings: ECa-109, 48 h
[14] = test system: ECa-109 cell line; test: Synergistic antitumor activity against in vincristine resistant p-gp overexpressing human Eca-109 cells xenografted in nude mouse assessed as inhibition of tumor growth rate at 30 mg/kg, IG administered every two days for 21 days in presence of vincristine relative to control; assay type: functional; set-up: scale not given: the % may be the effect or the level left; settings: time 21 day
[15] = test system: ECa-109 cell line; test: Induction of apoptosis in vincristine resistant human Eca-109 cells assessed as early apoptotic cells at 5 uM incubated for 24 hrs by AnnexinV-FITC/PI staining based flow cytometric analysis (reference value: 2.30%); assay type: functional
[16] = Toxicity in nude mouse assessed as change in body weight at 30 mg/kg administered every 2 days for 21 days; assay type: organism-based; settings: in vivo, 48 h, time 2 day
[17] = test system: ECa-109 cell line; test: Synergistic anticancer activity in vincristine resistant human Eca-109 cells assessed as combination index at 10:1 compound to vincristine ratio measured after 48 hrs; assay type: functional
[18] = test system: ECa-109 cell line; test: Synergistic antitumor activity against in vincristine resistant p-gp overexpressing human Eca-109 cells xenografted in nude mouse assessed as reduction in tumor weight at 30 mg/kg, IG administered every two days for 21 days in presence of vincristine by caliper method; assay type: functional, organism-based; settings: time 21.0 day
[19] = Cytotoxicity against HEK293T cells incubated for 48 hrs by CCK-8 method; assay type: toxicity, cell-based, HEK-293T; settings: human
[20] = biological target: T2, ATP-dependent translocase ABCB1; test: Inhibition of P-gp efflux in vincristine resistant human Eca-109 cells assessed as increase in colocalization of dox with nucleus at 1 to 5 uM incubated for 3 hrs by DAPI staining based laser-scanning confocal microscopy analysis; assay type: cell-based; settings: eca-109, 3 h, dose 1-5 µM
[21] = Apparent volume of distribution during terminal phase in Sprague-Dawley rat at 30 mg/kg, po measured upto 24 hrs by UPLC/MS/MS analysis; assay type: ADME, organism-based; settings: in vivo, read-out: Vz/F
[22] = Hepatotoxicity in nude mouse at 30 mg/kg, IG administered every two days for 21 days in presence of vincristine by H and E staining based analysis; assay type: toxicity, organism-based; settings: in vivo, po, 504 h, time 21 day
[23] = Terminal elimination half life in Sprague-Dawley rat at 3 mg/kg, iv measured upto 24 hrs by UPLC/MS/MS analysis; assay type: ADME, organism-based; settings: in vivo, read-out: LambdaZ (converted)
[24] = Cytotoxicity against human GES1 cells incubated for 48 hrs by CCK-8 method; assay type: toxicity, cell-based
[25] = test system: ECa-109 cell line; test: Induction of apoptosis in vincristine resistant human Eca-109 cells assessed as necrotic cells at 5 uM incubated for 24 hrs by AnnexinV-FITC/PI staining based flow cytometric analysis (reference value: 0.25%); assay type: functional
[26] = MRT (0 to infinity) in Sprague-Dawley rat at 3 mg/kg, iv measured upto 24 hrs by UPLC/MS/MS analysis; assay type: ADME, organism-based; settings: in vivo
[27] = Cytotoxicity against human LX2 cells incubated for 48 hrs by CCK-8 method; assay type: toxicity, cell-based, LX-2

T2 sequence (P08183 whole entry): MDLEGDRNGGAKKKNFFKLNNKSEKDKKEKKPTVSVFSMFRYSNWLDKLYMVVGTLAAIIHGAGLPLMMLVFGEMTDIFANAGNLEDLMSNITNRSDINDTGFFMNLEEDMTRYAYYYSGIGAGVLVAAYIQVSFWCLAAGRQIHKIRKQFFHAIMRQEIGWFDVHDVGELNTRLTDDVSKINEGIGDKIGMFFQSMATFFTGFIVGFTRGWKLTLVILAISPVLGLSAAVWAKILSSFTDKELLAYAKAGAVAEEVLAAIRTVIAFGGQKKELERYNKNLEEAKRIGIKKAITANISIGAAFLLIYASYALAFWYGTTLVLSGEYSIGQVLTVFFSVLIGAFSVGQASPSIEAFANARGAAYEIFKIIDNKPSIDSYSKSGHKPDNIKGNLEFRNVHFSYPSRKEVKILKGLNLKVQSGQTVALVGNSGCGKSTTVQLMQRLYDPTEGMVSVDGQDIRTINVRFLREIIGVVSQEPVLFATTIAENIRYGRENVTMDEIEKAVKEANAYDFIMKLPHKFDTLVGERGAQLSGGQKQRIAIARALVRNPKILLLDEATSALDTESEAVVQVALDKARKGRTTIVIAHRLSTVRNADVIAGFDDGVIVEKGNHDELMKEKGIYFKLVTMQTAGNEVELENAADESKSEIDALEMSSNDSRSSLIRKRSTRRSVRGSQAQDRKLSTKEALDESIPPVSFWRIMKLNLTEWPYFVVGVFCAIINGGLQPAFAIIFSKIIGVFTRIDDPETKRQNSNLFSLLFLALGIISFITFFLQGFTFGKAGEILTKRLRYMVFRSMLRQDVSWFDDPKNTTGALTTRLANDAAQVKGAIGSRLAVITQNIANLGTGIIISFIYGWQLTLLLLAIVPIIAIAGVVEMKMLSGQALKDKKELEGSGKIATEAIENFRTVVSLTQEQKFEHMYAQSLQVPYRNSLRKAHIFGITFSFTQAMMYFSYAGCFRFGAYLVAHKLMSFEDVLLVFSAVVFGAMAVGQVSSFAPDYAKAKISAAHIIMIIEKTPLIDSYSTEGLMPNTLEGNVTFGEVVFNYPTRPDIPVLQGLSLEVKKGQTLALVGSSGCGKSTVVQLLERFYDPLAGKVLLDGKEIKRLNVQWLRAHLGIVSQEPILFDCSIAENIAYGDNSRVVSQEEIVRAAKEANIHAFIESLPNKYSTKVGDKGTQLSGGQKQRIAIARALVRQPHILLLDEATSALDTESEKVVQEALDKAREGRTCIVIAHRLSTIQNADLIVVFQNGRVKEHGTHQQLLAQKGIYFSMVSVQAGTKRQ

With `COc1cc2c(cc1OC)C(Cc1ccc(OC)c(OCc3ccccc3)c1)N(C)CC2` (configuration not stated) the “fold change (FC)” value [1] was 103.4, the Activity [2] was “Not Active” and the Activity [3] was “Active”. For the same compound, the AUC(0-t) at 24 h [4] was 2.67 µg·h/mL, the viability at 2.5 µM [5] was 70.5% and the Activity [6] was 0.37%. The “inhibition (INH)” value [7] was “Dose-Dependent Effect”, the viability at 2.5 µM [8] was 91.9% and the half-life [9] was 7.37 h. The Activity [10] was 24.9%, the bioavailability [11] was 7.65% and the Activity [12] was 95.3%. The IC50 [13] was greater than 100 µM, the Activity [14] was 79.13% and the Activity [15] was 2.51%. For the same compound, the Activity [16] was “Non-Toxic”, the CI [17] was less than 1 and the Activity [18] was “Active”. The IC50 at 48 h [19] was greater than 50 µM, the “inhibition (INH)” value [20] was “Active” and the Vd/F [21] was 111 L/kg. The Activity [22] was “Non-Toxic”, the k el at 24 h [23] was 4.17e-05 s⁻¹ and the IC50 at 48 h [24] was greater than 50 µM. For the same compound, the Activity [25] was 0.14%, the MRT inf [26] was 2.68 h and the IC50 at 48 h [27] was greater than 50 µM.
